# Laboratory results as given in US20190125672A1, “Fabrication of Magnetic Vesicles for Biomedical Imaging and Delivery” (University of Maryland, College Park, priority 2017, published 2019).
# Key:
# U87MG cells = experiment: MTT cytotoxicity assay; settings: Dox concentration
# Description: Cells were plated at a density of 1×10^4 in 96-well plates and cultured at 37° C. for 24 hours. Then the culture medium was replaced and the cells were incubated with different concentrations of Dox, Mu magento-vesicles, Dox-Mu magento-vesicles, and RGD-Dox-Mu magento-vesicles for 1 hour. The concentrations of Fe in MuMVs, Dox-MuMVs and RGD-Dox-MuMVs as well as the concentrations of Dox in free drug, Dox-MuMVs and RGD-Dox-MuMVs groups were kept constant for the purpose of comparison. Then the culture medium was replaced with fresh medium and the cells were incubated for another 12 hours, followed by the addition of 20 μL of the MTT solution (5 mg/mL). After incubation for 4 hours, culture supernatants were carefully removed and 100 μL of DMSO was added into each well to dissolve the purple precipitate. The concentration of the reduced MTT in each well was determined spectrophotometrically by subtraction of the absorbance reading at 650 nm from that measured at 570 nm using a microplate reader (SpectraMax M5). Cell viabilities were presented as the percentage of the absorbance of Dox, MuMVs, Dox-MuMVs and RGD-Dox-MuMVs treated cells to the absorbance of non-treated cells and plotted as Fe and Dox concentrations.
# U87MG tumors = experiment: In vivo tumor suppression; parameters: species or system mice; settings: without magnet; Dox-equivalent dose 5 mg/kg i.v.; over 30 days
# Description: The therapeutic efficacy was evaluated by monitoring the tumor volume change every two days over 30 days (FIG. 61A).
# The U87MG tumor-bearing mice were randomly divided into six groups with 5 mice in each group. The first group of mice received PBS, as control group; the second group was injected with Dox solution, as “Dox” group; the third group was injected with Dox-MuMVs without magnetic attraction, as “magnet- RGD-” group; the fourth group was injected with RGD-Dox-MuMVs without magnetic enrichment, as “magnet-RGD+” group; the fifth group was injected with Dox-MuMVs under magnetic attraction, as “magnet+RGD-” group; the sixth group was injected with RGD-Dox-MuMVs under magnetic attraction, as “[…]” group. All the experimental groups (2-6 groups) are dispersed in 150 μl PBS before intravenous administration with a Dox-equivalent dose of 5 mg/kg. For the groups under magnetic attraction, the magnet was applied for 1 h along with injection of therapeutic agents. […] after the corresponding treatments, the volume of tumors was measured every other day and calculated by the following equation: V=L×W^2/2. The body weight of the mice was also evaluated during this period to reveal the systemic toxicity of the delivery platform.
structure (smiles),measurement,setting,value
"COc1cccc2c1C(=O)c1c(O)c3c(c(O)c1C2=O)C[C@@](O)(C(=O)CO)C[C@@H]3O[C@H]1C[C@H](N)[C@H](O)[C@H](C)O1 [Dox, doxorubicin]",IC50,U87MG cells,0.47 µg/mL
same,tumor growth,U87MG tumors,Minor delay in tumor growth
